This passage reports cytotoxicity results from ChEMBL document CHEMBL3507680, “University of Dundee, Gates Library screen for HepG2 cell viability”.

The data set is described as follows: Human HepG2 cell viability assay in 384 well format. In kind it is toxicity, cell-based. Further details: dose 125 nL, time 70.5 hour; concentration not given beside the values. The following applies: HepG2 cells, read-out: Inhibition.
For the molecule `COCCN(CCN(C)C)C(=O)NC1CCc2ccccc2C1` (stereo not drawn), the cytotoxicity at 70.5 h is -5.75%.

As to `c1nc(N2CCc3nc[nH]c3C2)c2cc[nH]c2n1`, the cytotoxicity at 70.5 h came to 2.38%.

Regarding `Cc1cc(N2CCC(N(C)C(=O)c3cccs3)CC2)nc(C)n1`, the cytotoxicity at 70.5 h is -18.8%.

For `O=C(c1cc2c(s1)CCC2)N1CCCC1Cn1cccn1` (stereo not drawn), the cytotoxicity at 70.5 h is -1.69%.

On to `CC(C)NC(=O)[C@H]1C[C@@H]2[C@@H](C1)OCCN2Cc1cccs1`, for which the cytotoxicity at 70.5 h was -2.88%.

`Cc1noc(C)c1CN1CCn2cc(CN3CCCC3)nc2C1`: the cytotoxicity at 70.5 h is -4.15%.

For `CN(C)C(=O)COCc1nnc2n1CCN(Cc1ccoc1)C2`, the cytotoxicity at 70.5 h was -3.1%.

With `CCNC(=O)[C@@H]1C[C@H](NC(=O)c2cncnc2C)CN1CCCSC`, the cytotoxicity at 70.5 h is -1.96%.

For the molecule `COc1cc(C(=O)N2CCCC2c2noc(C(C)C)n2)on1` (stereo not drawn), the cytotoxicity at 70.5 h was -2.66%.

Regarding `CN1CCOC(CNCCOc2ccc(C#N)cc2)C1` (stereo not drawn), the cytotoxicity at 70.5 h was -5.57%.

In the case of `CN(C)CC(=O)N1CCC2(CC1)CN(Cc1ccccc1)C2`, the cytotoxicity at 70.5 h was 30.2%.

For the molecule `CO[C@@H]1CC[C@@H](NC(=O)CCc2ccc(Cl)cc2)[C@H]1O`, the cytotoxicity at 70.5 h is -7.81%.

In the case of `Cn1c(CCN2CCN(c3ccc(O)cc3)CC2)nc2ccccc21`, the cytotoxicity at 70.5 h came to 14.6%.

Regarding `Cc1ccc(NC2CCN(C(=O)CCc3ccncc3)CC2)nn1`, the cytotoxicity at 70.5 h is -7.44%.

`CCc1ncc2c(n1)CN(Cc1nc(-c3ccco3)oc1C)CC2`: the cytotoxicity at 70.5 h was -7.47%.

With `O=C(CC1COCCN1)NCCc1noc(-c2ccccc2)n1` (stereo not drawn), the cytotoxicity at 70.5 h is -2.33%.

In the case of `NC(=O)c1ccc(N2CCCCC2)c(NC(=O)c2cncc(Br)c2)c1`, the cytotoxicity at 70.5 h is -7.05%.

With `CN(C)CCOCC1CN(CC2CCOCC2)Cc2nnn(C)c21` (stereo not drawn), the cytotoxicity at 70.5 h is -6.51%.

In the case of `Cc1cnn(CC2CCCN2C(=O)c2cnc(-c3ccco3)s2)c1` (stereo not drawn), the cytotoxicity at 70.5 h is -9.06%.

Take `Cc1ccc(OC2CCN(CCn3cncn3)CC2)cc1`: the cytotoxicity at 70.5 h is -10.7%.

`O=C(c1nsc(Cl)c1Cl)N1CCc2nc3sccc3c(=O)n2CC1`: the cytotoxicity at 70.5 h is -3.17%.

For the molecule `CCCc1nnsc1C(=O)NCC1CCN(c2ccccn2)CC1`, the cytotoxicity at 70.5 h was -6.19%.

Regarding `Cc1ccnc(OC[C@@]23CCO[C@@H]2CCN(c2ncccn2)C3)n1`, the cytotoxicity at 70.5 h is 5.78%.

As for `O=C(c1ccncc1)N1CC2(CCNCC2)c2cc(Cl)ccc21`, the cytotoxicity at 70.5 h is -6.69%.

As for `CCc1ccc(O)c(C(=O)NC2CCN(Cc3ccncc3)CC2)c1`, the cytotoxicity at 70.5 h amounted to 17.7%.

On to `Cc1ccc(CN2CCN(C)c3ncccc3C2)o1`, for which the cytotoxicity at 70.5 h was -6.49%.

As for `COCC(=O)N1CCN(S(=O)(=O)c2ccccc2)[C@H]2CS(=O)(=O)C[C@H]21`, the cytotoxicity at 70.5 h is -7.41%.

Turning to `c1cc(CO[C@@H]2CN(Cc3ccoc3)[C@@H]3CCCO[C@@H]32)ccn1`, the cytotoxicity at 70.5 h is -16%.

On to `Cn1nc(Br)c2c(=O)n(CCc3ccccc3)cnc21`, for which the cytotoxicity at 70.5 h was -8.29%.

Consider `CC(=O)c1cn(CCC(=O)NCCC(=O)O)c2ccccc12`, for which the cytotoxicity at 70.5 h was -12.4%.

For the molecule `COc1ccc(C2=CCN(C(=O)C3CCS(=O)(=O)C3)CC2)cc1` (stereo not drawn), the cytotoxicity at 70.5 h amounted to 19.4%.

On to `Cc1sc(Br)cc1S(=O)(=O)NCCN`, for which the cytotoxicity at 70.5 h is -7.86%.

On to `CN1CCC(N(Cc2ccco2)S(=O)(=O)c2cc(Br)ccc2Br)CC1`, for which the cytotoxicity at 70.5 h came out at 1.03%.

Take `CC1CCN(S(=O)(=O)NCc2ccccc2Cn2cncn2)CC1`: the cytotoxicity at 70.5 h is -2.92%.

On to `CCS(=O)(=O)N1CCC2(CC(=O)N(c3cnn(C)c3)C2)C1` (stereo not drawn), for which the cytotoxicity at 70.5 h is -2.5%.

Regarding `CC(C)N(Cc1c[nH]nc1-c1ccc2c(c1)OCO2)Cc1nccn1C`, the cytotoxicity at 70.5 h is -4.64%.

`CC(C)n1ncc2c1NC(=O)C(C#N)C21CCCCC1` (stereo not drawn): the cytotoxicity at 70.5 h was -9.51%.

`Cc1ccc(S(=O)(=O)NC(CO)CC(C)C)cc1N(C)C` (stereo not drawn): the cytotoxicity at 70.5 h is -3.97%.

For `CCC(C)NC(=O)CCc1ccnc2ccccc12` (stereo not drawn), the cytotoxicity at 70.5 h stood at 2.59%.

Regarding `CCC1CN(C(=O)COc2ccc(C(=O)NC3CC3)cc2)CCO1` (stereo not drawn), the cytotoxicity at 70.5 h is -2.32%.

In the case of `CNC(=O)[C@H]1C[C@@H]2CCN(Cc3ccncc3)C[C@H]2O1`, the cytotoxicity at 70.5 h is -6.07%.

For `COCC1c2nnn(CC3CC3)c2CCN1C(=O)Cc1cccs1` (stereo not drawn), the cytotoxicity at 70.5 h is -8.15%.

As to `COCCn1c(C(=O)NCC(C)C(=O)O)cc2ccccc21` (stereo not drawn), the cytotoxicity at 70.5 h came to 0.983%.

`Cc1nnc([C@H]2CCN(CCCc3ccccc3)C2)o1`: the cytotoxicity at 70.5 h was determined as 8.95%.

As to `COc1ccc(C(O)CNC(=O)Nc2cc(C)nn2C)cc1` (stereo not drawn), the cytotoxicity at 70.5 h worked out at 25.3%.

In the case of `CC(NCc1ccc(F)cc1)c1ccc2[nH]c(=O)[nH]c2c1` (stereo not drawn), the cytotoxicity at 70.5 h was 0.625%.

`COc1ncccc1C(=O)NCCn1nc(C)ccc1=O`: the cytotoxicity at 70.5 h is -8.68%.

In the case of `CCOC(=O)CN1CC(c2nc(-c3ccsc3)no2)C1`, the cytotoxicity at 70.5 h stood at 0.957%.

For the molecule `Cn1nc2c(cc1=O)CN(Cc1coc(-c3cccc(F)c3)n1)CC2`, the cytotoxicity at 70.5 h was -2.83%.

For the molecule `Cc1cc(C(=O)N2CCN(Cc3ccsc3)CC2)c(C)n1C1CC1`, the cytotoxicity at 70.5 h is -14.9%.

Consider `c1csc(-c2nc(CN3CCOC(Cn4cncn4)C3)cs2)c1` (stereo not drawn), for which the cytotoxicity at 70.5 h was -26.8%.

As for `Cc1ccnc(C(Nc2nccc(-c3ccc(C)nc3C)n2)C2CC2)c1` (stereo not drawn), the cytotoxicity at 70.5 h was -6.77%.

With `Cc1cc(C)n(CC2CCCN2Cc2cccc(C#N)c2)n1` (stereo not drawn), the cytotoxicity at 70.5 h was -3.89%.

Turning to `Cc1cc(CNCC2(O)CCCN(CCCc3ccccc3)C2=O)n[nH]1` (stereo not drawn), the cytotoxicity at 70.5 h is -5.17%.

As to `O=C(C1CCOCC1)N1CC[C@H]2C[C@@H](c3ccncn3)O[C@@H]2C1`, the cytotoxicity at 70.5 h is -8.58%.

On to `O=C(Cc1ccccn1)N1CC[C@]2(C[C@@H](Oc3ncccc3F)CO2)C1`, for which the cytotoxicity at 70.5 h stood at 2.46%.

`C1CC(c2nnc(CN3CCCC3c3noc(C4CC4)n3)o2)C1` (stereo not drawn): the cytotoxicity at 70.5 h was -7.54%.

Take `O=C(NC1CC1)c1nc2c(s1)CCCN2c1ccccc1`: the cytotoxicity at 70.5 h is -6.79%.

In the case of `Cc1cc2nc(C(C)C)cc(N(C)CC3CCCN3C)n2n1` (stereo not drawn), the cytotoxicity at 70.5 h was -10.7%.

On to `COc1cc(Cl)cc(C(=O)N2CCC3(CCCNC3)C2)c1` (stereo not drawn), for which the cytotoxicity at 70.5 h is -5.79%.

As to `Cn1cnnc1C1CCN(C(=O)CCOc2ccc(Cl)cc2)CC1`, the cytotoxicity at 70.5 h was determined as 19.2%.

For `O=C(c1ccncc1)N1CCc2[nH]nc(Nc3ccccc3)c2C1`, the cytotoxicity at 70.5 h was found to be 21.7%.

As to `CC(NCC(=O)NCC(=O)Nc1ccc(F)cc1)c1cccs1` (stereo not drawn), the cytotoxicity at 70.5 h was -17.8%.

Take `Cc1ccc(F)c2c1N(C(=O)c1ccc(S(C)(=O)=O)cc1)CCC2`: the cytotoxicity at 70.5 h is -10.6%.

On to `CCNC(=O)N1CCc2ccc(NC(=O)NCc3ccsc3)cc21`, for which the cytotoxicity at 70.5 h came out at 9.35%.

For `Cn1cc(C(=O)NCCC(=O)N2CCCCC2)c(-c2cccnc2)n1`, the cytotoxicity at 70.5 h was found to be 6.62%.

For the molecule `CCNc1cc2c(nn1)CCN(C(=O)c1ccc(NC3CC3)nc1)C2`, the cytotoxicity at 70.5 h was 1.85%.

Consider `CCOCC(O)CN1CCN(C(=O)c2cnc3n[nH]c(C)c3c2)CC1` (stereo not drawn), for which the cytotoxicity at 70.5 h was -2.39%.

Regarding `c1cnn(CCNCc2cnc(N3CCOCC3)nc2)c1`, the cytotoxicity at 70.5 h is 41.2%.

With `CCN1CCCC(C)(C(=O)NCc2nncn2CCc2ccccc2)C1` (stereo not drawn), the cytotoxicity at 70.5 h was -8.53%.

`CC(C)c1nc(C2CCCN2Cc2ccno2)no1` (stereo not drawn): the cytotoxicity at 70.5 h is -12%.

`CCN1C(=O)CCC12CCCN(Cc1nccs1)CC2` (stereo not drawn): the cytotoxicity at 70.5 h is -8.57%.

For `CO[C@H]1C[C@@H](O)C12CCN(CCOc1ccc(Cl)cc1)CC2`, the cytotoxicity at 70.5 h was -1.42%.

With `CCN(CC)S(=O)(=O)CC(=O)N1CCc2ccc(C)cc21`, the cytotoxicity at 70.5 h is -7.29%.

In the case of `CC(C)COC(C)C(=O)N1CCCCCC1` (stereo not drawn), the cytotoxicity at 70.5 h was -8.79%.

`CC(C)N1CC(c2ncc(-c3ccc4c(c3)OCCO4)[nH]2)CC1=O` (stereo not drawn): the cytotoxicity at 70.5 h was -5.64%.

Regarding `CC(CCN1CCCC1=O)NCc1cnc(C2CCC2)s1` (stereo not drawn), the cytotoxicity at 70.5 h was -6.2%.

On to `CCCNC(=O)c1cnc2n1CCCC2`, for which the cytotoxicity at 70.5 h is -9.22%.

Consider `Cc1nn(C)c(C)c1CN1CCCC1c1nccc(CN(C)C)n1` (stereo not drawn), for which the cytotoxicity at 70.5 h was -0.0769%.

On to `Cc1nc(CO[C@@H]2CN(Cc3ccccn3)[C@@H]3COC[C@@H]32)cs1`, for which the cytotoxicity at 70.5 h is -7.36%.

As for `COC(=O)c1ccccc1NC(=O)c1c(C)cn(C)c1CC(=O)O`, the cytotoxicity at 70.5 h came to 18.3%.

As for `CCS(=O)(=O)N1C[C@@H](Oc2ccccn2)[C@H]2OCCC[C@H]21`, the cytotoxicity at 70.5 h was 25.1%.

For `CC(NC(=O)Nc1ccccc1CN1CCOCC1)c1nccs1` (stereo not drawn), the cytotoxicity at 70.5 h is -2.17%.

Regarding `COc1ccc(CNC(C)Cn2cccn2)c(OC)c1OC` (stereo not drawn), the cytotoxicity at 70.5 h is -7.21%.

For `CCOC(=O)[C@]12CCCN(Cc3ccco3)C[C@H]1CN(S(C)(=O)=O)C2`, the cytotoxicity at 70.5 h was -4.24%.

`CN(C)C(=O)C1CCCN(C(=O)c2ccccc2-n2cc(CN)cn2)C1` (stereo not drawn): the cytotoxicity at 70.5 h amounted to 48.5%.

Turning to `O=C(NCCCO)c1nc(-c2ccc3cc[nH]c3c2)no1`, the cytotoxicity at 70.5 h was -7.51%.

With `COc1ccc(NC(=O)c2nc(C)sc2C(C)C)cn1`, the cytotoxicity at 70.5 h was -9.52%.

As to `CC(=O)c1ccc(Nc2nc(N)nc3c2nc(C)n3C)cc1`, the cytotoxicity at 70.5 h stood at 4.46%.

`CCC1=N[C@@]2(CC[C@@H]3CN(Cc4ccc(C)cc4)C[C@@H]32)C(=O)N1C`: the cytotoxicity at 70.5 h is -2.71%.

As for `COc1cc(C)ccc1OCC(=O)NS(=O)(=O)c1cccnc1`, the cytotoxicity at 70.5 h is -3.71%.

Take `O=S(=O)(Nc1cnn(C2CCOCC2)c1)c1c(F)cccc1F`: the cytotoxicity at 70.5 h was -1.01%.

Take `CN1CCN(C(=O)C2CCCN(c3cccnn3)C2)CC1` (stereo not drawn): the cytotoxicity at 70.5 h came out at 26.4%.

Take `COC(=O)Cn1c(=O)nc2n1C(=O)N(c1ccc(Br)cc1)C2`: the cytotoxicity at 70.5 h amounted to 10.9%.

On to `CC(=O)N1CCCC(Cc2cnc(C(=O)N3CCC(C)CC3)cn2)C1` (stereo not drawn), for which the cytotoxicity at 70.5 h is -5.67%.

As to `O=C(NCc1nnc2ccccn12)N1CCc2sccc2C1`, the cytotoxicity at 70.5 h is -21.7%.

On to `CN(C)c1nccc(NCc2cc(-c3cccs3)n[nH]2)n1`, for which the cytotoxicity at 70.5 h is 4.36%.

Consider `CC(=O)N1CCC[C@@H](NCc2cccc(F)c2)[C@@H]1c1ccc(C)s1`, for which the cytotoxicity at 70.5 h is -6.03%.
